Data published in US20090197872A1 (priority 2006, published 2009).
Counter-ions that a name gives are not always drawn.

Target: T1, α7-subtype of nicotinic receptors (Rattus norvegicus, UniProt Q05941)
T1 construct: from tissue; host or cells: rat brain
Assay: biochemical
Settings: read-out: Inhibition of 3H-α-Bungarotoxine Binding IC50

T1 sequence (Q05941 23-502): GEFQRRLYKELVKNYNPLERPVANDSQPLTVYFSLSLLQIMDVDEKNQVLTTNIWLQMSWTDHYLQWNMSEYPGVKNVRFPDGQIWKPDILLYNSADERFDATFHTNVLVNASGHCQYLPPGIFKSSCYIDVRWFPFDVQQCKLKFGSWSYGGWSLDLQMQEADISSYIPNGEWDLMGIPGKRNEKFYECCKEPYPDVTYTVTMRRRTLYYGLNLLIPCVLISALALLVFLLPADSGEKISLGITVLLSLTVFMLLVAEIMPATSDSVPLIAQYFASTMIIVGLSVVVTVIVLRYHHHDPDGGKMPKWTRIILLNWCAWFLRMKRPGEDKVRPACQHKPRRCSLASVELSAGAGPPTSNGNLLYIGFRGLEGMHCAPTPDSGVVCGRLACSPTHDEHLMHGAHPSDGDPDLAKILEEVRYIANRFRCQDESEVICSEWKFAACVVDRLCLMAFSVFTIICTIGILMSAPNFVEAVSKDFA

Compound O=C(Nc1cnc(N2CCN3CCC2CC3)nc1)Oc1ccccc1 [Compound A2, [2-(1,4-Diaza-bicyclo[3.2.2]non-4-yl)-pyrimidin-5-yl]-carbamic Acid Phenyl Ester Hydrochloric Acid Salt] has an IC50 of less than 300 nM.
